The subject of data set [1] is end stage liver disease (ESLD) patients. Kind of data set: Model for End-Stage Liver Disease (MELD) score analysis in supplemented patients awaiting liver transplantation. Type of data set: in vivo, human. From the text: Vital organs for study included: cardiac muscle acquired from heart transplant recipients with end stage heart failure (TCP n=3, TE n=5); liver from transplant recipients with end-stage liver (TCP n=3, TE n=4); adipose acquired from abdominal adipose tissue of morbidly obese patients undergoing reconstructive plastic surgery (TCP n=4, TE n=5); and brain tissue from recalcitrant epilepsy patients requiring resection (TE n=4). Control brain samples were taken from autopsy participants donated to science and represent vitamin E concentrations of the general population, without dietary TE consumption (n=4). […] TCP gel capsules contained 200 mg of d-alpha-tocopherol. Vitamin E gel capsules were sealed in blister packs. To determine compliance, study participants mailed empty packages back to the clinic every two weeks. Participant supplementation compliance for the study was >90%. Random-effects linear regression was used to estimate the individual slope and intercepts of the MELD score pre- and post-supplementation for each subject. This was performed separately for TCP and TE supplementation groups. Random-effects regression takes into account the variability within participants due to repeated measures and the variability between participants in order to estimate the standard error. Due to the serendipitous nature of the MELD score findings the length of supplementation was not standardized between patients awaiting liver transplantation. The time scale is in days relative to beginning of the patient's vitamin E supplementation. […] The percent change in the slope from pre- to post-supplementation was calculated. Summary statistics are presented for pre- and post-slope and the percent change across TE and TCP supplementation groups. Wilcoxon rank-sum was used to test differences in slope and percent change in slope between TCP and TE. Wilcoxon signed-rank test was used to compare pre- to post-supplementation.

The conditions of data set [2]: human, in vivo.
A short description of data set [3]: Skin biopsy vitamin E concentration following oral TE supplementation, Healthy Participants Group. To be noted: TE 400 mg daily, 12 wk vs baseline.
Data set [4] can be described thus: Brain vitamin E concentration, Surgical Patients Group. To be noted: for Brain vitamin E concentration, 25th percentile / Brain vitamin E concentration, 50th percentile / Brain vitamin E concentration, 75th percentile / Brain vitamin E concentration, mean: n = 4.
A short description of data set [5]: Abdominal adipose vitamin E concentration, Surgical Patients Group. Conditions: for Adipose vitamin E concentration, 25th percentile / Adipose vitamin E concentration, 50th percentile / Adipose vitamin E concentration, 75th percentile / Adipose vitamin E concentration, mean: 400 mg daily oral.
Data set [6] is described as follows: Heart (cardiac muscle) vitamin E concentration, Surgical Patients Group. Conditions: for Heart vitamin E concentration, 25th percentile / Heart vitamin E concentration, 50th percentile / Heart vitamin E concentration, 75th percentile / Heart vitamin E concentration, mean: 400 mg daily oral.
Data set [7] can be described thus: Liver vitamin E concentration, Surgical Patients Group.
The conditions of data set [8]: human, in vivo. This is another data set of the same source.
The conditions of data set [9]: human, in vivo. This is another data set of the same source.
Data set [10] deals with T1, Tocopherol transfer protein (TTP) (Homo sapiens, UniProt P49638).
T1 sequence (P49638 1-278): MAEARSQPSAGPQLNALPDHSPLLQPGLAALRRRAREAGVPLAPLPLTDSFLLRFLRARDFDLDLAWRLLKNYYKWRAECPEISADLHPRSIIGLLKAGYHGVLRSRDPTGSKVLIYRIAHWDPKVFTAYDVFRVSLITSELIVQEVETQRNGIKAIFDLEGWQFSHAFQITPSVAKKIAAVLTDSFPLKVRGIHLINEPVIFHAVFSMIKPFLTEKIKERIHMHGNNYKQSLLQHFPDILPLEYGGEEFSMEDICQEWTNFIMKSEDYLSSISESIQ
To be noted: background statement; cited from earlier work.

In the next data set the target is T2, HMG-CoA reductase (Homo sapiens, UniProt P04035).
T2 sequence (P04035 1-888): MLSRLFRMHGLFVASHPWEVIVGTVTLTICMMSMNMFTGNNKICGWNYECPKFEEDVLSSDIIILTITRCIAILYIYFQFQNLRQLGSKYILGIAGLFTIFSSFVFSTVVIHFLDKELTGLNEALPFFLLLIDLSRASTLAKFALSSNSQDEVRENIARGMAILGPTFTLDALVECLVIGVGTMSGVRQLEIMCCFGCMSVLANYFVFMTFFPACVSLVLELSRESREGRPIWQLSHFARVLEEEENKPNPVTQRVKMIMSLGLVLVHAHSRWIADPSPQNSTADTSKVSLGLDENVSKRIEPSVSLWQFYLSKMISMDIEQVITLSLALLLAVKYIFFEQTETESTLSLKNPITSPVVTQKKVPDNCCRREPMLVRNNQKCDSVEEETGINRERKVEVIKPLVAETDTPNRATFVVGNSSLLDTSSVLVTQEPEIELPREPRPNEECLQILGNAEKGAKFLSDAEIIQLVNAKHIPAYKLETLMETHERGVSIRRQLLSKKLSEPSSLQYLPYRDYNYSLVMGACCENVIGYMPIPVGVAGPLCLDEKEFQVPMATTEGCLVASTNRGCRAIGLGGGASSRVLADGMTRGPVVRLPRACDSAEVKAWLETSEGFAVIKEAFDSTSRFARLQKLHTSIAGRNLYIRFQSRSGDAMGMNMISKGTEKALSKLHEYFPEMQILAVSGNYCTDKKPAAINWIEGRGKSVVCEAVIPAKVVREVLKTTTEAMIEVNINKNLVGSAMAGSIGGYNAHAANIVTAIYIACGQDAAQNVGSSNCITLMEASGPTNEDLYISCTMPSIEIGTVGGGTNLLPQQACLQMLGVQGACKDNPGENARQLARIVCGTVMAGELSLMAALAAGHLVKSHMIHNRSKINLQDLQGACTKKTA
To be noted: hepatic enzyme responsible for cholesterol synthesis; background statement; cited from earlier work.

Setting [11] is: individual patient, 400 mg daily oral.
The mark [12] stands for this setting: TE supplemented, 400 mg daily oral.
Setting [13] is: TE supplemented, 400 mg daily oral, n = 4.

“And” between values parts separate entries of the source, which are not always exact repeats. Identical values can stand only once. Like-named read-outs stand apart in the source and are kept apart here.

Take `Cc1c(C)c2c(c(C)c1O)CC[C@@](C)(CCC[C@H](C)CCC[C@H](C)CCCC(C)C)O2` [TCP, d-alpha-tocopherol]: the “participants with a reduction (improvement) in MELD score” value in [1] (ESLD participants, oral supplementation 400 mg daily) came to 20%. The “MELD score Pre-supplement Intercept” value in data set [1] (individual patient awaiting liver transplantation, before supplementation (baseline)) is 16.4 (2×) and 15.7 and 16.5 and 16.9. For the same compound, in data set [1] (setting [11]), the “MELD score Post-supplement Intercept” value was 14.2 (3×) and 14.0 and 14.4; the “MELD score slope % Change (pre vs. post)” value was 372% and −155% and 1028% and 619% and 598%. Also, the “MELD score Post-supplement Slope” value in data set [1] (individual patient, 400 mg daily oral, slope multiplied by 10,000, time in days) is 483 and −60 and 1139 and 702 and 712. In addition, the “MELD score Pre-supplement Slope” value in data set [1] (individual patient, before supplementation (baseline), slope multiplied by 10,000, time in days) is 102 (2×) and 109 and 101 and 98.

Take `Cc1c(C)c2c(c(C)c1O)CC[C@@](C)(CCC[C@H](C)CCC[C@H](C)CCCC(C)C)O2` [αTCP, d-alpha-tocopherol]: in [2], the “Brain vitamin E concentration, 25th percentile” value came to 41.1 nmol/g; the “Brain vitamin E concentration, 50th percentile” value was determined as 43.3 nmol/g; the “Brain vitamin E concentration, 75th percentile” value is given as 60.0 nmol/g; the “Brain vitamin E concentration, mean” value came to 50.5 nmol/g.

For `Cc1c(O)cc2c(c1C)O[C@](C)(CCC[C@H](C)CCC[C@H](C)CCCC(C)C)CC2` [γTCP], in [2], the “Brain vitamin E concentration, 25th percentile” value was found to be 0.98 nmol/g; the “Brain vitamin E concentration, 50th percentile” value is reported as 2.51 nmol/g; the “Brain vitamin E concentration, 75th percentile” value was 10.6 nmol/g; the “Brain vitamin E concentration, mean” value is 5.77 nmol/g.

In the case of `CC(C)=CCC/C(C)=C/CC/C(C)=C/CC[C@]1(C)CCc2cc(O)c(C)c(C)c2O1` [γTE, d-gamma-tocotrienol], the “effect of oral TE supplementation on skin concentration” value in data set [3] is “significantly elevated”. In [4] (TCP supplemented), the “Brain vitamin E concentration, 25th percentile” value was 0.03 nmol/g; the “Brain vitamin E concentration, 50th percentile” value worked out at 0.05 nmol/g; the “Brain vitamin E concentration, 75th percentile” value worked out at 0.08 nmol/g; the “Brain vitamin E concentration, mean” value is recorded as 0.06 nmol/g. The “brain concentration, TE supplemented compared with control (cadaveric) brain” value in [4] (TE 400 mg daily) is on record as “significantly elevated”. For the same compound, in data set [4] (setting [12]), the “Brain vitamin E concentration, 25th percentile” value amounted to 0.47 nmol/g; the “Brain vitamin E concentration, 50th percentile” value came out at 0.70 nmol/g; the “Brain vitamin E concentration, 75th percentile” value came out at 1.19 nmol/g; the “Brain vitamin E concentration, mean” value is on record as 0.83 nmol/g. Also, in data set [5] (TCP supplemented, n = 4), the “Adipose vitamin E concentration, 25th percentile” value stood at 0.71 nmol/g; the “Adipose vitamin E concentration, 50th percentile” value is 1.72 nmol/g; the “Adipose vitamin E concentration, 75th percentile” value is on record as 3.21 nmol/g; the “Adipose vitamin E concentration, mean” value turned out to be 1.96 nmol/g. Besides, in [5] (TE supplemented vs controls, P<0.05), the “adipose concentration relative to controls” value is given as approximately 10 fold. Also, in data set [5] (TE supplemented, n = 5), the “Adipose vitamin E concentration, 25th percentile” value worked out at 12.4 nmol/g; the “Adipose vitamin E concentration, 50th percentile” value came to 17.1 nmol/g; the “Adipose vitamin E concentration, 75th percentile” value is given as 23.5 nmol/g; the “Adipose vitamin E concentration, mean” value is on record as 17.2 nmol/g. Moreover, the “heart muscle level, TE supplemented compared with participants receiving TCP alone” value in [6] (400 mg daily) is “significantly higher”. For the same compound, in data set [6] (TCP supplemented, n = 3), the “Heart vitamin E concentration, 25th percentile” value is 0.02 nmol/g; the “Heart vitamin E concentration, 50th percentile” value is listed as 0.23 nmol/g; the “Heart vitamin E concentration, 75th percentile” value turned out to be 0.26 nmol/g; the “Heart vitamin E concentration, mean” value is 0.17 nmol/g. Moreover, in data set [6] (TE supplemented, n = 5), the “Heart vitamin E concentration, 25th percentile” value was found to be 2.07 nmol/g; the “Heart vitamin E concentration, 50th percentile” value was 6.70 nmol/g; the “Heart vitamin E concentration, 75th percentile” value was found to be 14.4 nmol/g; the “Heart vitamin E concentration, mean” value was found to be 8.85 nmol/g. For the same compound, the “liver concentration, TE supplemented compared with TCP supplemented patients” value in [7] (400 mg daily) was “increased”. Also, in data set [7] (setting [13]), the “Liver vitamin E concentration, 25th percentile” value came to 0.17 nmol/g; the “Liver vitamin E concentration, 50th percentile” value amounted to 0.45 nmol/g; the “Liver vitamin E concentration, 75th percentile” value was determined as 1.1 nmol/g; the “Liver vitamin E concentration, mean” value is reported as 0.61 nmol/g.

Regarding `CC(C)=CCC/C(C)=C/CC/C(C)=C/CC[C@]1(C)CCc2cc(O)cc(C)c2O1` [δTE, d-delta-tocotrienol], in [2], the “Brain vitamin E concentration, 25th percentile” value is recorded as 0.09 nmol/g; the “Brain vitamin E concentration, 50th percentile” value is given as 0.15 nmol/g; the “Brain vitamin E concentration, 75th percentile” value amounted to 0.17 nmol/g; the “Brain vitamin E concentration, mean” value came to 0.13 nmol/g. Also, the “concentration in liver tissue relative to that found in adipose” value in [8] is recorded as “less than 10%”. Besides, the “adipose concentration relative to controls” value in data set [9] is approximately 10 fold.

Consider d-alpha-tocotrienol [αTE], for which the “affinity of TTP to bind and transport, relative to αTCP” value in data set [10] is reported as 12%. Also, in [2], the “Brain vitamin E concentration, 25th percentile” value came to 0.03 nmol/g; the “Brain vitamin E concentration, 50th percentile” value was determined as 0.04 nmol/g; the “Brain vitamin E concentration, 75th percentile” value worked out at 0.05 nmol/g; the “Brain vitamin E concentration, mean” value was found to be 0.04 nmol/g. Moreover, the “effect of oral TE supplementation on skin concentration” value in data set [3] is “significantly elevated”. In addition, in [8], the “concentration in liver tissue relative to that found in adipose” value was “less than 10%”. Moreover, the “effect on activity of HMG-CoA reductase” value at HMG-CoA reductase is reported as “suppresses the activity”. In [9], the “adipose concentration relative to controls” value is on record as approximately 10 fold.

These data come from patent publication US20130309202A1, “Methods for Improving Liver Function” (The Ohio State University, priority 2012, published 2013).
